“And” between values parts separate entries of the source, which are not always exact repeats. Equal entries are not always repeated. Where two headings read alike, the source gives them in different places.
Legend:
Cyp1a/CYP1A enzymes = assay: TCDD treatment of mice: hepatic total P450, EROD and MROD induction; assay type: in vivo, mouse; settings: for increase of total hepatic cytochrome P450: TCDD 10 µg/kg i.p., 48 hours
Description: Mice were given a single intraperitoneal dose of TCDD (10 µg/kg) or vehicle control (corn oil) and then euthanized 48 hours after the dosing using a rising concentration of CO2.
Microsomal fractions were prepared as previously described ([Henderson et al., 2019]). In brief, fresh liver samples were homogenized in ice-cold SET(Sucrose-EDTA-Tris) buffer (0.25 M sucrose, 5 mM EDTA, 20 mM Tris-HCL, pH 7.4; 9 ml buffer/g liver) and centrifuged at 2000 rpm (Sorvall RTH-250, 10 minutes, 4°C). The supernatant was centrifuged (12,000 rpm, Sorvall SS-34 rotor, 20 minutes, 4°C), the resulting supernatant was centrifuged (∼30,000 rpm, Sorvall TFT-45.6, 90 minutes, 4°C) (ThermoFisher Scientific, UK), and microsomal pellets were resuspended in ice-cold SET buffer and stored at −70°C.
Microsomal protein concentration fractions were measured using a modification of a previously described method ([Lowry et al., 1951]) and total hepatic microsomal P450 as previously described ([Omura and Sato, 1964]).
(§1) A mixture of ER (0.93 μM) or MR (0.46 μM) and liver microsomes (0.004–0.27 mg protein/ml) in 100 mM potassium phosphate buffer (pH 7.4) supplemented with MgCl2 (3.3 mM) was incubated at 37°C for 5 minutes before the reaction was initiated by injection of NADPH (final concentration, 1.2 mM). […] Activities in duodenum, ileum, jejunum, colon, lung, kidney, spleen, heart, brain, and testis microsomes were measured as described earlier except for the following adjustments: MR concentration was 1 μM, concentration of total microsomal protein in the reaction was in the range of 0.07–0.43 mg/ml, and amount of resorufin added to calculate the reaction product concentration was 40 pmol.

[1] = Microsomal stability in mouse liver microsomes (WT, Cyp1a KO, hCYP1A1/1A2)
Description: The reaction was started by addition of 200 μl of NADPH to the remaining mixture of ramelteon with microsomes, and 100-μl aliquots were taken at 1, 2, 5, 10, 15, 20, and 30 minutes after the reaction start; mixed with an equal volume of ice-cold methanol containing the internal standard; incubated on ice for at least 20 minutes; and centrifuged for 15 minutes at 16,000 rcf and +4°C on Centrifuge 5415 R (Eppendorf, Hamburg, Germany). Control incubations were carried out without the cofactor or microsomes. The concentration of ramelteon in the supernatant was measured by high-performance liquid chromatography–tandem mass spectrometry (MS/MS). Chromatographic separation was performed on a Prodigy Phenyl-3 column (5 μm, 50 × 2.0 mm; Phenomenex) using an injection volume of 10 μl and a run time of 7 minutes. Mobile phase consisted of 0.1% solutions of formic acid in water (solvent A) and acetonitrile (solvent B). For elution, a linear gradient from 20% to 60% of solvent B in 4 minutes was used, followed by 3-minute equilibration at 20% B. The multiple reaction monitoring parameters for ramelteon and tacrine were 260.28, 199.2 (precursor ion) and 204.21, 171.11 (product ion), respectively. The concentrations of ramelteon were calculated from the calibration curve.

[2] = tested on: liver microsomes from TCDD-treated hCYP1A1/1A2 mice; assay: MROD in liver microsomes from TCDD-treated hCYP1A1/1A2 mice: individual contribution of CYP1A1, CYP1A2 and non-Cyp1a; assay type: in vitro ADME, mouse
Description: (§2) Protein enzyme/concentrations were 3.46 pmol/ml for recombinant human CYP1A1, 10.8 pmol/ml for recombinant human CYP1A2, 0.05 mg protein/ml for liver microsomes from TCDD-treated hCYP1A1/1A2 mice, and 0.25 mg protein/ml for liver microsomes from TCDD-treated Cyp1 KO mice and vehicle-treated hCYP1A1/1A2 mice. Where needed, total protein concentration in the reaction mixtures was adjusted using Control Bactosomes (Cypex), so all reactions (including those with the recombinant cytochrome P450s) were carried out at a total protein concentration of 0.25 mg protein/ml. Generation of fluorescent product was registered in a kinetic mode (excitation filter, 530 nm; emission filter, 584 nm). Slopes of the linear part of the kinetic curves were calculated using Ascent Software version 2.4.1 (Labsystems). For each well with the reaction medium, there was a control well containing the reaction mixture with resorufin (40 pmol). Before addition of NADPH to the reaction wells, fluorescence was recorded both from the reaction and from the control wells. The average fluorescence was calculated, and the difference between wells with and without resorufin was used for the conversion of the relative fluorescence units to the picomoles of the reaction product.

liver microsomes = assay: Constitutive EROD and MROD activity in liver microsomes of WT, Cyp1a KO and hCYP1A1/1A2 mice; assay type: in vitro ADME, mouse
Description: as §1

Recombinant rat CYP1A1 = tested on: Recombinant rat CYP1A1; set-up: method as in Namkung et al., 1988; settings: recombinant rat enzymes; ref Namkung et al., 1988; cited from earlier work
recombinant human CYP1A1 [3] = molecular target: T1, recombinant human CYP1A1 (Homo sapiens, UniProt P04798); assay: MROD by recombinant human CYP1A1, inhibition by quinidine
T1 sequence (P04798 1-512): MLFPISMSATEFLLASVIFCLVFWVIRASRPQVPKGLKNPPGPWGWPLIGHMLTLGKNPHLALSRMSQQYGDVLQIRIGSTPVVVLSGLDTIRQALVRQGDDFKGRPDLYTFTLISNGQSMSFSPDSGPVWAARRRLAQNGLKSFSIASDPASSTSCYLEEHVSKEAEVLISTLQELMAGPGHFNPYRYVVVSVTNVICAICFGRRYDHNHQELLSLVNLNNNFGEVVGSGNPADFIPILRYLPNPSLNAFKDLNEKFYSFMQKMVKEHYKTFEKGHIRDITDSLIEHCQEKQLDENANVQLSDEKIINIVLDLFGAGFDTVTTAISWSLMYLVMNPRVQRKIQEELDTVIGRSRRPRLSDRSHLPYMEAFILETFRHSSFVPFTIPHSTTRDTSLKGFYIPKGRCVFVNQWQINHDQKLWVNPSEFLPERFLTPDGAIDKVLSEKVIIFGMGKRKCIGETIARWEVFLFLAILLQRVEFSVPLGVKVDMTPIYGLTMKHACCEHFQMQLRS
Description: (§3) Slopes of the linear part of the kinetic curves were calculated using Ascent Software version 2.4.1 (Labsystems).
(§4) Where needed, total protein concentration in the reaction mixtures was adjusted using Control Bactosomes (Cypex), so all reactions (including those with the recombinant cytochrome P450s) were carried out at a total protein concentration of 0.25 mg protein/ml. […] Slopes of the linear part of the kinetic curves were calculated using Ascent Software version 2.4.1 (Labsystems). For each well with the reaction medium, there was a control well containing the reaction mixture with resorufin (40 pmol). Before addition of NADPH to the reaction wells, fluorescence was recorded both from the reaction and from the control wells. The average fluorescence was calculated, and the difference between wells with and without resorufin was used for the conversion of the relative fluorescence units to the picomoles of the reaction product.

recombinant human CYP1A2 = molecular target: T2, recombinant human CYP1A2 (Homo sapiens, UniProt P05177); assay: MROD by recombinant human CYP1A2, inhibition by quinidine; settings: MROD, rCYP1A2
T2 sequence (P05177 1-516): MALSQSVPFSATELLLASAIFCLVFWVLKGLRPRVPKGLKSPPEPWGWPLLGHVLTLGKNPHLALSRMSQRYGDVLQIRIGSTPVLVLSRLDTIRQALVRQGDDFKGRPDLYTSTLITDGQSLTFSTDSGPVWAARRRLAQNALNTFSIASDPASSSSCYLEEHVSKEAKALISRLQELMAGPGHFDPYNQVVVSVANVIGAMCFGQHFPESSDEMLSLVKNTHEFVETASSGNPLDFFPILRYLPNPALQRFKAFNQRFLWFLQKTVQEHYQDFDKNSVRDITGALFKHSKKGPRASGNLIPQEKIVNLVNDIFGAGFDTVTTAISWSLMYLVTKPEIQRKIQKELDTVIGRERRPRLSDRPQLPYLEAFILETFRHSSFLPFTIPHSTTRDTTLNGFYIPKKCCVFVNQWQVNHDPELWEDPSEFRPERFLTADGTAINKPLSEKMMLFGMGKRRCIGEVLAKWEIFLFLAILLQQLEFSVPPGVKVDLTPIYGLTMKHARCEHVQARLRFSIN
Description: as §3, §4

recombinant human CYP1A1 [4] = molecular target: T1, recombinant human CYP1A1; set-up: host or cells: bacteria (membrane / 'bacterial microsomes' preparation); method as in Liu et al., 2004; settings: recombinant human enzymes; ref Liu et al., 2004; cited from earlier work
[5] = tested on: liver microsomes from TCDD-treated Cyp1a KO mice (non-Cyp1a component); assay: MROD in liver microsomes from TCDD-treated Cyp1a KO mice with and without quinidine
Description: as §2

[6] = hCYP1A1/1A2 mice, liver microsomes
[7] = 200 μM quinidine, increased substrate concentration
[8] = 200 μM quinidine, low concentrations of MR
[9] = absence of inhibitor, low substrate concentrations
[10] = liver microsomes from TCDD-treated hCYP1A1/1A2 mice, nonlinear regression eq. 8

## Clc1cc2c(cc1Cl)Oc1cc(Cl)c(Cl)cc1O2 [TCDD, 2,3,7,8-tetrachlorodibenzo-p-dioxin]
Cyp1a/CYP1A enzymes; Cyp1a KO line, liver microsomes
  increase in MROD activity: 4.6 fold
Cyp1a/CYP1A enzymes; Cyp1a KO liver
  increase in EROD activity relative to untreated animals: 3 fold
Cyp1a/CYP1A enzymes; Cyp1a KO mice
  change in total P450 on TCDD treatment: no change
Cyp1a/CYP1A enzymes; TCDD-treated hCYP1A1/1A2 mice
  concentration of hepatic CYP1A1 estimated from EROD Vmax/kcat: 59 pmol/mg microsomal protein
Cyp1a/CYP1A enzymes; WT mice
  CYP1A enzymes as share of total hepatic P450 content after TCDD: 58%
  increase of total hepatic cytochrome P450: 2.37 fold
Cyp1a/CYP1A enzymes; WT mice, liver microsomes
  increase in EROD activity relative to untreated animals: ~114 fold
  increase in MROD activity: 44 fold
  total hepatic cytochrome P450 after TCDD: 840 pmol/mg protein
Cyp1a/CYP1A enzymes; hCYP1A1/1A2 mice
  CYP1A enzymes as share of total hepatic P450 content after TCDD: 46%
  increase of total hepatic cytochrome P450: 1.84 fold
Cyp1a/CYP1A enzymes; [6]
  increase in EROD activity relative to untreated animals: 39 fold
  increase in MROD activity: 31 fold
  total hepatic cytochrome P450 after TCDD: 632 pmol/mg protein

## Nc1c2c(nc3ccccc13)CCCC2 [tacrine]
[1]; WT mice liver microsomes, eqs. 15 and 16
  fraction metabolized by Cyp1a2: ~0.68
[1]; hCYP1A1/1A2, mouse, microsomes, 1 µM, pH 7.4
  fraction metabolized by CYP1A2: ~0.60

## COc1ccc2nc3ccc(=O)cc-3oc2c1 [MR, 7-methoxyresorufin]
[2]
  Non-Cyp1a contribution to MROD: ≤ 1.5%
[2]; [7]
  CYP1A1 contribution to MROD: ~9%
  CYP1A2 contribution to MROD: ~90%
[2]; [8]
  CYP1A1 contribution to MROD: less than 1%
  CYP1A2 contribution to MROD: ~98%
[2]; absence of inhibitor, 6 μM MR
  CYP1A1 contribution to MROD: ~18%
  CYP1A2 contribution to MROD: ~81%
[2]; [9]
  CYP1A1 contribution to MROD: 49%
  CYP1A2 contribution to MROD: 50%
[2]; [10]
  Vmax for CYP1A1, MROD: 1600 pmol/min/mg protein
  Vmax for CYP1A2, MROD: 2000 pmol/min/mg protein and 1969 pmol/min/mg protein
Liver microsomes; hCYP1A1/1A2 mouse line liver microsomes
  MROD activity compared with WT animals: unchanged
Liver microsomes; liver microsomes from Cyp1a KO mice
  decrease of MROD compared with WT animals: approximately 90%
Recombinant rat CYP1A1
  MROD activity of CYP1A1 compared to CYP1A2 (times less active): ~14 times
Recombinant human CYP1A1 [3]; read-out: Ks1 ± S.E., rCYP1A1
  Kd: 470 ± 70 nM
Recombinant human CYP1A1 [3]; read-out: Ks2 ± S.E., rCYP1A1
  Kd: 1300 ± 180 nM
Recombinant human CYP1A2; read-out: Ks1 ± S.E.
  Kd: 580 ± 80 nM
Recombinant human CYP1A2; read-out: Ks2 ± S.E.
  Kd: 12000 ± 3500 nM
Recombinant human CYP1A1 [4]
  MROD activity of CYP1A1 compared with CYP1A2 (times less active): ~5.8 times
[5]; read-out: Ks1 ± S.E.
  Kd: 960 ± 180 nM
[5]; read-out: Ks2 ± S.E.
  Kd: 3400 ± 800 nM
